In patent publication US9221809B2 (MERCK SHARP & DOHME CORP., priority 2011, dated 2015):
Structures can show the parent of a compound that is named as a salt. Blank lines part the entries; values can stand above or below the compound they belong to.

Biological target: IRAK4 (Homo sapiens (Human), UniProt Q9NWZ3)
Assay: IRAK4 kinase activity, IMAP fluorescence polarization assay
Type: biochemical
Conditions: 100 μM ATP, 0.5 nM GST tagged IRAK4; read-out: IRAK4 IC50
Outline: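 Fluorescence polarization (IMAP nanoparticle binding of phosphopeptide) reports activity after a 30 min, 25 °C reaction. Conditions: 100 μM ATP, 0.5 nM GST-IRAK4, 100 nM fluorescent peptide, 10 mM Tris pH 7.2, 1 mM MgCl2, 1 mM DTT, 0.01% Tween 20.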

Chain of IRAK4 (Q9NWZ3 whole entry): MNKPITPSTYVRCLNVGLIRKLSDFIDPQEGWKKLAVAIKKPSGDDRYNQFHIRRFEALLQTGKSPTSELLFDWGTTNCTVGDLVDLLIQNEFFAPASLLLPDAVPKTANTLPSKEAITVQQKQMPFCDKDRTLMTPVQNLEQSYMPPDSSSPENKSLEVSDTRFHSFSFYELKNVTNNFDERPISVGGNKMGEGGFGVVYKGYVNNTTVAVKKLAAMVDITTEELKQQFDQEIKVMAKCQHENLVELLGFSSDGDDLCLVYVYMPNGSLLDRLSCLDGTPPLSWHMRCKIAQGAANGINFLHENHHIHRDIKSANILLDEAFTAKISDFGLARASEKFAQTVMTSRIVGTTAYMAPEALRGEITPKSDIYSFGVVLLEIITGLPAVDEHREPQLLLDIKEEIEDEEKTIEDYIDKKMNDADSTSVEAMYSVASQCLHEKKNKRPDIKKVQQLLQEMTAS

IC50: 79 nM
SMILES: O=c1[nH]c(N2CCOCC2)nc(N[C@@H]2CCCCNC2)c1-c1nc2ccccc2s1 [Example 104, (R)-6-(azepan-3-ylamino)-5-(benzo[d]thiazol-2-yl)-2-morpholinopyrimidin-4(3H)-one.HCl]

IC50: 85 nM
SMILES: O=c1[nH]c(N2CCOCC2)nc(N[C@H]2CNC[C@H](O)C2)c1-c1nc2ccccc2s1 [Example 105, 5-(benzo[d]thiazol-2-yl)-6-(((3R,5R)-5-hydroxypiperidin-3-yl)amino)-2-morpholinopyrimidin-4(3H)-one.HCl]

IC50: 91 nM
SMILES: CC1CCC(Nc2nc(N3CCOCC3)[nH]c(=O)c2-c2ccc3ccccc3n2)CN1 (stereo not drawn) [Example 107, 6-((6-methylpiperidin-3-yl)amino)-2-morpholino-5-(quinolin-2-yl)pyrimidin-4(3H)-one.HCl]

IC50: 1470 nM
SMILES: Cc1cccc(-c2c(N[C@@H]3CCCNC3)nc(N3CCOCC3)[nH]c2=O)n1 [Example 109, (R)-5-(6-methylpyridin-2-yl)-2-morpholino-6-(piperidin-3-ylamino)pyrimidin-4(3H)-one]

IC50: 872 nM
SMILES: Cc1ccc(-c2c(N[C@@H]3CCCNC3)nc(N3CCOCC3)[nH]c2=O)nc1 [Example 110, (R)-5-(5-methylpyridin-2-yl)-2-morpholino-6-(piperidin-3-ylamino)pyrimidin-4(3H)-one]

IC50: 9 nM
SMILES: O=c1[nH]c(N2CCOCC2)nc(N[C@@H]2CCCNC2)c1-c1nc2c(C3CC3)nccc2s1 [Example 111, (R)-5-(4-cyclopropylthiazolo[4,5-c]pyridin-2-yl)-2-morpholino-6-(piperidin-3-ylamino)pyrimidin-4(3H)-one.HCl]

IC50: 46 nM
SMILES: O=c1[nH]c(N2CCOCC2)nc(N[C@@H]2CCCNC2)c1-c1nc2ccc(F)cc2s1 [Example 112, (R)-5-(6-fluorobenzo[d]thiazol-2-yl)-2-morpholino-6-(piperidin-3-ylamino)pyrimidin-4(3H)-one.HCl]

The remaining lines, values behind:

SMILES: CN1CCC[C@@H](Nc2nc(N3CCOCC3)[nH]c(=O)c2-c2nc3ccccc3s2)C1 [Example 95, (R)-5-(Benzo[d]thiazol-2-yl)-6-(1-methylpiperidin-3-ylamino)-2-morpholinopyrimidin-4(3H)-one.HCl]
IC50: 354 nM

SMILES: O=c1[nH]c(N2CCOCC2)nc(N[C@@H]2CCCNC2)c1-c1nc2cc(F)ccc2s1 [Example 97, (R)-5-(5-Fluorobenzo[d]thiazol-2-yl)-2-morpholino-6-(piperidin-3-ylamino)pyrimidin-4(3H)-one.HCl]
IC50: 8.4 nM

SMILES: O=c1[nH]c(N2CCOCC2)nc(N[C@@H]2CCCNC2)c1-c1nc(-c2ccc(F)cc2)cs1 [Example 98, (R)-5-(4-(4-Fluorophenyl)thiazol-2-yl)-2-morpholino-6-(piperidin-3-ylamino)pyrimidin-4(3H)-one.HCl]
IC50: 24 nM

SMILES: Cc1nccc2sc(-c3c(N[C@@H]4CCCNC4)nc(N4CCOCC4)[nH]c3=O)nc12 [Example 99, (R)-5-(4-Methylthiazolo[4,5-c]pyridin-2-yl)-2-morpholino-6-(piperidin-3-ylamino)pyrimidin-4(3H)-one.HCl]
IC50: 5.7 nM

SMILES: O=c1[nH]c(N2CCOCC2)nc(N[C@@H]2CCCNC2)c1-c1nc(C2CC2)cs1 [Example 100, (R)-5-(4-cyclopropylthiazol-2-yl)-2-morpholino-6-(piperidin-3-ylamino)pyrimidin-4(3H)-one.HCl]
IC50: 433 nM

SMILES: O=c1[nH]c(N2CCOCC2)nc(N[C@@H]2CCCNC2)c1-c1nccs1 [Example 101, (R)-2-morpholino-6-(piperidin-3-ylamino)-5-(thiazol-2-yl)pyrimidin-4(3H)-one.HCl]
IC50: 1830 nM

SMILES: Cc1cnc(-c2c(N[C@@H]3CCCNC3)nc(N3CCOCC3)[nH]c2=O)s1 [Example 102, (R)-5-(5-methylthiazol-2-yl)-2-morpholino-6-(piperidin-3-ylamino)pyrimidin-4(3H)-one.HCl]
IC50: 1270 nM

SMILES: O=c1[nH]c(N2CCOCC2)nc(N[C@@H]2CCCNC2)c1-c1nc(-c2ccc(OC(F)(F)F)cc2)cs1 [Example 103, (R)-2-morpholino-6-(piperidin-3-ylamino)-5-(4-(4-(trifluoromethoxy)phenyl)thiazol-2-yl)pyrimidin-4(3H)-one.HCl]
IC50: 2250 nM
